The results in this text go back to patent publication US20240190847A1, “INDOLINE DERIVATIVES AS DDR1 AND DDR2 INHIBITORS” (CHIESI FARMACEUTICI S.P.A., priority 2021, published 2024).

Each structure is given as a SMILES string. Where only a bound is given, the exact number is not on record here.

The target of one experiment is DDR1. The experiment is described as follows: DDR1 LanthaScreen Europium Kinase Binding assay. The note with it: 5 nM DDR1, 1 hour at room temperature, Ki from IC50 by Cheng-Prusoff, read-out: Ki DDR1. The procedure: (§1) DDR1 and DDR2 binding assays were performed using Life Technologies LanthaScreen™ Europium Kinase Binding assay. The compounds were incubated with 5 nM DDR1 (Carna Biosciences) or 5 nM DDR2 (Life Technologies) for 1 hour at room temperature in white 384-well OptiPlate (PerkinElmer), containing 20 nM or 10 nM Kinase Tracer 178 respectively and 2 nM Europium labelled anti-GST antibody (Life Technologies) in assay buffer (50 mM HEPES pH 7.5, 10 mM MgCl2, 1 mM EGTA and 0.01% BRIJ35). The ratio of fluorescence emission 665 nm/615 nm after excitation at 340 nm was obtained using the Tecan Spark 20M plate reader. IC50 values were determined in GraphPad Prism 8.0 software, using 4 parameter model: log(inhibitor) vs. response. IC50 values were converted in Ki using the Cheng-Prusoff equation (Ki=IC50/(1+[Tracer]/Kd).
(TR-FRET usually uses a lanthanide donor and a delayed reading to cut background.)

Experiment [1] deals with DDR2. Put plainly: DDR2 LanthaScreen Europium Kinase Binding assay. To be noted: 5 nM DDR2, 1 hour at room temperature, Ki from IC50 by Cheng-Prusoff, read-out: Ki DDR2. The procedure: as §1
Another experiment has as its system DDR1 receptor. Put plainly: DDR1 cell based assay (PathHunter U2OS DDR1). The note with it: U2OS-DDR1 cells, bovine Type II Collagen 20 μg/ml stimulation. The method, then: The inhibition of DDR1 receptor activation by compounds was evaluated by PathHunter® U2OS DDR1 assay (Eurofins DiscoverX), according to the manufacturer's instructions. Briefly, U2O5-DDR1 cells were seeded in white 384-well plates at a density of 5000 cells/well and incubated for 2 hours at 37° C. and 5% CO2. Cells were then treated with compounds at different concentrations and incubated for 30 minutes, before stimulation with bovine Type II Collagen 20 μg/ml and incubation overnight at 37° C. and 5% CO2. PathHunter Detection Reagents were prepared according to the protocol provided by DiscoverX and 20 μl/well of this mix were added to each well. After incubating the plates for 1 hour at room temperature in the dark, luminescence signal was acquired with a plate reader. Raw data were normalized to vehicle control (0% for normalization) and positive control (100% for normalization; cells treated with 20 μg/ml collagen II) and IC50 parameters were calculated in GraphPad Prism 8.0 software, using sigmoidal dose-response curve fitting with variable slope.

Experiment [2] has as its system DDR2. The experiment is described as follows: DDR2 cell based assay (phospho-ELISA in HEK293T-DDR2 cells). More on the design: species or system human. The note with it: DDR2 phosphorylation, bovine Type II Collagen 50 μg/ml, read-out: IC50DDR2. The procedure: The inhibition of DDR2 phosphorylation by compounds was evaluated in HEK293T-DDR2 recombinant cells by phospho-ELISA assay. Briefly, HEK293T-DDR2 cells were seeded in poly-D-lysine-coated 24-well plates at a density of 250.000 cells/well and incubated for 1.5 hours at 37° C. and 5% CO2 in DMEM+10% FBS. After that, the medium was changed to serum-free DMEM and cells were incubated for 3 hours. Then. test compounds were added at different concentrations 30 minutes before stimulation with bovine Type II Collagen at 50 μg/ml for further 3 hours. For DDR2 phospho-ELISA assay (DuoSet IC Human Phospho-DDR2; R&D Systems), protein extracts were obtained by adding 60 μl/well of lysis buffer prepared according to the manufacturer's instructions.
Protein concentration in the samples was determined by BCA assay and the levels of phospho-DDR2 were determined following R&D Systems indications. Raw data were normalized to maximal inhibition control (0% for normalization) and positive control (100% for normalization; cells treated with 20 μg/ml collagen II) and IC50 parameters were calculated in GraphPad Prism 8.0 software, using sigmoidal dose-response curve fitting with variable slope.

What is called Ki is a measure of affinity in units of concentration, obtained from inhibition or displacement. Regarding `CC(=O)Nc1ccc(CN2CCc3ccc(C(=O)Nc4ccc(CN5CCN(C)CC5)c(C(F)(F)F)c4)cc32)cn1` [Example 13, 1-((6-acetamidopyridin-3-yl)methyl)-N-(4-((4-methylpiperazin-1-yl)methyl)-3-(trifluoromethyl)phenyl)indoline-6-carboxamide], the Ki at DDR1 is less than 25 nM; at DDR2 [1], 25 to 50 nM. Also, the IC50 was less than 25 nM in the experiment with DDR1 receptor and 50 to 80 nM with DDR2 [2].
As for `CN1CCN(Cc2cc(NC(=O)c3ccc4c(c3)N(Cc3cnc(Nc5cnn(C)c5)nc3)CC4)cc(C(F)(F)F)c2)CC1` [Example 18, 1-((2-((1-methyl-1H-pyrazol-4-yl)amino)pyrimidin-5-yl)methyl)-N-(3-((4-methylpiperazin-1-yl)methyl)-5-(trifluoromethyl)phenyl)indoline-6-carboxamide], the Ki on DDR1 and at DDR2 [1] was less than 25 nM in each case. Also, the IC50 with DDR1 receptor and in the experiment on DDR2 [2] was less than 25 nM throughout.
Regarding `CNC(=O)c1cc(CN2CCc3ccc(C(=O)Nc4cc(-n5cnc(C)c5)cc(C(F)(F)F)c4)cc32)ccn1` [Example 2, N-(3-(4-methyl-1H-imidazol-1-yl)-5-(trifluoromethyl)phenyl)-1-((2-(methylcarbamoyl)pyridin-4-yl)methyl)indoline-6-carboxamide], the Ki at DDR1 and on DDR2 [1] was less than 25 nM throughout. This compound also had an IC50 in the experiment with DDR1 receptor of 25 to 50 nM.
Turning to `CNc1ccc(CN2CCc3ccc(C(=O)Nc4ccc(CN5CCN(C)CC5)c(C(F)(F)F)c4)cc32)cn1` [Example 14, 1-((6-(methylamino)pyridin-3-yl)methyl)-N-(4-((4-methylpiperazin-1-yl)methyl)-3-(trifluoromethyl)phenyl)indoline-6-carboxamide], the Ki at DDR1 was less than 25 nM; at DDR2 [1] it was 25 to 50 nM. Further, the IC50 in the experiment with DDR1 receptor was less than 25 nM; in the experiment on DDR2 [2], 50 to 80 nM.
As for `CN1CCN(Cc2ccc(NC(=O)c3ccc4c(c3)N(Cc3cnc(N)nc3)CC4)cc2C(F)(F)F)CC1` [Example 8, 1-((2-aminopyrimidin-5-yl)methyl)-N-(4-((4-methylpiperazin-1-yl)methyl)-3-(trifluoromethyl)phenyl)indoline-6-carboxamide], the inhibitory constant (Ki) at DDR1 was less than 25 nM; on DDR2 [1], 25 to 50 nM. Further, the IC50 in the experiment on DDR1 receptor is less than 25 nM.
On to `CN1CCN(Cc2cc(C(=O)Nc3ccc4c(c3)N(Cc3cnc(N)nc3)CC4)cc(C(F)(F)F)c2)CC1` [Example 21, N-(1-((2-aminopyrimidin-5-yl)methyl)indolin-6-yl)-3-((4-methylpiperazin-1-yl)methyl)-5-(trifluoromethyl)benzamide], for which the Ki on DDR1 and on DDR2 [1] was less than 25 nM each time. The IC50 in the experiment with DDR1 receptor fell in the range of 50 to 80 nM.
As for `CN1CCN(Cc2cc(C(=O)Nc3ccc4c(c3)N(Cc3cnc(Nc5cnn(C)c5)nc3)CC4)cc(C(F)(F)F)c2)CC1` [Example 4, N-(1-((2-((1-methyl-1H-pyrazol-4-yl)amino)pyrimidin-5-yl)methyl)indolin-6-yl)-3-((4-methylpiperazin-1-yl)methyl)-5-(trifluoromethyl)benzamide], the Ki at DDR1 and at DDR2 [1] was less than 25 nM throughout. Moreover, the IC50 in the experiment with DDR1 receptor and in the experiment with DDR2 [2] was less than 25 nM throughout.
For `CN1CCN(Cc2ccc(NC(=O)c3ccc4c(c3)N(Cc3cnc(N)cn3)CC4)cc2C(F)(F)F)CC1` [Example 11, 1-((5-aminopyrazin-2-yl)methyl)-N-(4-((4-methylpiperazin-1-yl)methyl)-3-(trifluoromethyl)phenyl)indoline-6-carboxamide], the Ki at DDR1 and at DDR2 [1] was less than 25 nM each time. Further, in the experiment on DDR1 receptor, the IC50 is less than 25 nM.
Consider `CN1CCN(Cc2cc(C(=O)Nc3ccc4c(c3)N(Cc3nccnc3N)CC4)cc(C(F)(F)F)c2)CC1` [Example 5, N-(1-((3-aminopyrazin-2-yl)methyl)indolin-6-yl)-3-((4-methylpiperazin-1-yl)methyl)-5-(trifluoromethyl)benzamide], for which the Ki on DDR1 and at DDR2 [1] was less than 25 nM in each case. Further, the values for the IC50 in the experiment on DDR1 receptor and in the experiment on DDR2 [2] were less than 25 nM and 25 to 50 nM, respectively.
`CN1CCN(Cc2ccc(NC(=O)c3ccc4c(c3)N(Cc3cncnc3N)CC4)cc2C(F)(F)F)CC1` [Example 10, 1-((4-aminopyrimidin-5-yl)methyl)-N-(4-((4-methylpiperazin-1-yl)methyl)-3-(trifluoromethyl)phenyl)indoline-6-carboxamide]: the inhibition constant Ki at DDR1 and on DDR2 [1] was less than 25 nM in each case. The IC50 in the experiment with DDR1 receptor was less than 25 nM.
For the compound `CNc1ncc(CN2CCc3ccc(C(=O)Nc4ccc(CN5CCN(C)CC5)c(C(F)(F)F)c4)cc32)cn1` [Example 12, 1-((2-(methylamino)pyrimidin-5-yl)methyl)-N-(4-((4-methylpiperazin-1-yl)methyl)-3-(trifluoromethyl)phenyl)indoline-6-carboxamide], the Ki at DDR1 was less than 25 nM; on DDR2 [1] it was 25 to 50 nM. Moreover, the IC50 with DDR1 receptor is less than 25 nM.
As to `COCCn1cc(Nc2ncc(CN3CCc4ccc(C(=O)Nc5cccc(C(F)(F)F)c5)cc43)cn2)cn1` [Example 16, 1-((2-((1-(2-methoxyethyl)-1H-pyrazol-4-yl)amino)pyrimidin-5-yl)methyl)-N-(3-(trifluoromethyl)phenyl)indoline-6-carboxamide], the Ki at DDR1 and at DDR2 [1] was less than 25 nM in each case. The IC50 in the experiment with DDR1 receptor and in the experiment on DDR2 [2] was less than 25 nM throughout.
For `CN1CCN(c2cncc(CN3CCc4ccc(C(=O)Nc5cccc(C(F)(F)F)c5)cc43)c2)CC1=O` [Example 7, 1-((5-(4-methyl-3-oxopiperazin-1-yl)pyridin-3-yl)methyl)-N-(3-(trifluoromethyl)phenyl)indoline-6-carboxamide], the Ki at DDR1 and at DDR2 [1] was less than 25 nM each time. This compound also returned an IC50 in the experiment on DDR1 receptor of less than 25 nM.
Consider `COCCn1cc(Nc2ncc(CN3CCc4ccc(C(=O)Nc5cc(CN6CCN(C)CC6)cc(C(F)(F)F)c5)cc43)cn2)cn1` [Example 19, 1-((2-((1-(2-methoxyethyl)-1H-pyrazol-4-yl)amino)pyrimidin-5-yl)methyl)-N-(3-((4-methylpiperazin-1-yl)methyl)-5-(trifluoromethyl)phenyl)indoline-6-carboxamide], for which the inhibitory constant (Ki) on DDR1 and at DDR2 [1] was less than 25 nM each time. In addition, in the experiment on DDR1 receptor, the IC50 was less than 25 nM.
